Like-named read-outs stand apart in the source and are kept apart here.
Experiments:
[1] = test system: Human Embryonic Kidney cells (HEK293); assay: MTT assay on normal cell line; type: cell-based; settings: 48 h
Experimental: HEK-293 cells (human embryonic kidney cells) were grown in Dulbecco’s modified eagle’s medium (DMEM) supplemented with 100 U/ml penicillin, 10% FBS, […] streptomycin and 50 mM glutamine. Furthermore, cells were harvested using trypsin and seeded in a 96-well cell culture plate for the MTT (3-(4,5-Dimethylthiazol-2-yl)-2,5-diphenyltetrazolium bromide) assay. The test compound was solubilized in cell culture grade DMSO. Once the cells in 96-well plates were 70% confluent, the compound was injected to the cells at five concentrations (0.01, 0.1, 1, 10, 100 µM) at 37 °C for 48 h (made in DMEM supplemented with 1% antibiotic and 10% FBS). After 48 h, cells were washed with PBS and added with 100 μL of fresh media in each well along with 10 μL of MTT reagent (5 mg/mL) for another 4 h. After 4 h, the media was again removed and added 100 μL cell culture grade DMSO to dissolve the formazan crystals formed by the reduction of MTT by live cells. The quantity of formed formazan crystal was determined as alterations in absorbance at 570 nm wavelength using ELISA plate reader (Bio-Tek). All tests were accomplished three times. The cell toxicity (%) was calculated using the following formula: %CellToxicity=100−ODoftreatedwell/ODofuntreatedwell×100

[2] = test system: NCI-60 cancer cell panels; assay: NCI cytotoxicity screen, full panel summary; type: cell-based
Experimental: Cytotoxicity was performed at National Cancer Institute (NCI), Bethesda, USA as per their protocols.

CT-DNA [3] = assay: Thermal denaturation of CT-DNA; type: binding, calf; settings: CT-DNA 8.5 µM : compound 10 µM, pH 7.4
Experimental: DNA melting studies were completed by measuring the absorption spectra at 260 nm of CT-DNA (8.5 µM) and CT-DNA-derivative 31 complex (8.5 µM:10 µM) in phosphate buffer (pH 7.4) at varying temperature from 20 to 100 °C using spectrophotometer connected with Peltier.

CT-DNA [4] = assay: CT-DNA binding, fluorescence quenching (Stern-Volmer, Scatchard); design: species or system calf
Experimental: (§1) The stock solution of compound 31 (10^−3 M) was prepared in DMSO and diluted to required concentration using appropriate buffer solution. Calf thymus (CT)-DNA was dissolved in 10 mM Tris buffer of pH 7.4 having 1 mM EDTA at room temperature. The purity of DNA solution was determined by using the ratio of absorbance at 260 nm and 280 nm wavelength. Extinction coefficient 6600 M^−1 cm^−1 of single nucleotide at 260 nm was used to determine the concentration of the DNA solution. The stock solution of BSA (10^−3 M) was prepared in distilled water and stored at 4 °C temperature.
In the case of BSA experiments, fluorescence emission spectra were performed for BSA (10 µM) with increasing concentration of compound 31 (0–10 µM) in phosphate buffer (pH 7.4) at room temperature upon excitation at 280 nm. The dissociation constant of compound 31 was estimated by titrating the complex of compound 31 (10 µM) and BSA (10 µM) with increasing concentration of ibuprofen (0–15 µM), upon excitation at 280 nm. All emission spectra were recorded in the range of 200 to 800 nm.
(§2) Binding parameters KSV and Kq were calculated using the Stern-Volmer equation (Eq. 2):2 F0/F=1+Ksv[Analyte]=1+Kqτo[Analyte]
(§3) Fo denotes the emission intensity of derivative 31/BSA free from analyte (CT-DNA/ derivative 31), whereas, F denotes the emission intensity of derivative 31/BSA bound with analyte (CT-DNA/derivative 31). The values of KSV and Kq were determined from the plot of Fo/F vs. [analyte].
(§4) The binding parameters Kbin and n were determined using Scatchard equation (Eq. 3):3 logF0−F/F=logKbin+nlog[analyte]
(§5) Fo and F denote similar factors as those of the above Stern-Volmer equation. The values of Kbin and n were determined from the plot of log (Fo − F)/F vs. log [analyte].

[5] = molecular target: bovine serum albumin (BSA) (Bos taurus, UniProt P02769); assay: BSA binding, fluorescence quenching (Stern-Volmer, Scatchard)
Sequence of bovine serum albumin (BSA) (P02769 25-607): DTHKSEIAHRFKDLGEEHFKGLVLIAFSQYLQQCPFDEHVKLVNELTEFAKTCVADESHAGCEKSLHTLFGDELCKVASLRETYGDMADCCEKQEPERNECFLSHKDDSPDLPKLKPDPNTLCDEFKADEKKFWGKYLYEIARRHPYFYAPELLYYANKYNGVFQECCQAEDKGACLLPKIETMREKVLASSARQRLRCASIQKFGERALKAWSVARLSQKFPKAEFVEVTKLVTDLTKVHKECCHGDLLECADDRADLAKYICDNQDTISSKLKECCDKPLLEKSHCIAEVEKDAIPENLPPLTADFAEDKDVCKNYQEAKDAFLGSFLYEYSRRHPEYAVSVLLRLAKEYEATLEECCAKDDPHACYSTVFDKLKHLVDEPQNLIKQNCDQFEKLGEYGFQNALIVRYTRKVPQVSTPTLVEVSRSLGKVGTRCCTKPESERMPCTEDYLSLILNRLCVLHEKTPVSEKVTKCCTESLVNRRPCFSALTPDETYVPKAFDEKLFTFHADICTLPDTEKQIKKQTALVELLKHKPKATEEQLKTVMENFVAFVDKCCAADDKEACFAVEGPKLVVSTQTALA
Experimental: as §1
[…] The dissociation constant of compound 31 was estimated by titrating the complex of compound 31 (10 µM) and BSA (10 µM) with increasing concentration of ibuprofen (0–15 µM), upon excitation at 280 nm. All emission spectra were recorded in the range of 200 to 800 nm.
as §2, §3, §4, §5

## c1cn2cc(-c3ccc4ncn(C5CCCCC5)c4c3)nc(-c3ccc4c(c3)ncn4C3CCCCC3)c2n1 [Compound 31, 8-(1-cyclohexyl-1H-benzo[d]imidazol-5-yl)-6-(1-cyclohexyl-1H-benzo[d]imidazol-6-yl)imidazo[1,2-a]pyrazine]
[1]; 10^−4 M
  % survival of HEK293 cells: above 79%
[1]; 10^−5 M
  % survival of HEK293 cells: > 83%
[1]; 10^−6 M
  % survival of HEK293 cells: > 84%
[1]; 10^−7 M
  % survival of HEK293 cells: > 89%
[1]; 10^−8 M
  % survival of HEK293 cells: > 90%
[2]; Homo sapiens, read-out: Full panel mean-graph midpoint (MG-MID) GI50
  GI50: 2.12 µM
[2]; Homo sapiens, read-out: GI50 range over nine panels of cell lines
  GI50: 0.8 to 2.87 µM
[2]; Homo sapiens, average over all cancer cell lines, five dose, read-out: Full panel mean-graph midpoint (MG-MID) LC50
  CC50: 6.63 µM
[2]; average over all cancer cell lines, five dose
  Full panel mean-graph midpoint (MG-MID) TGI: 4.73 µM
[2]; single dose 10 µM
  number of cell lines with cytostatic effect: 8
  number of cell lines with cytotoxic effect: 51
CT-DNA [3]
  ∆Tm: 12 °C
CT-DNA [4]; CT-DNA, pH 7.4, 298 K
  Ksv (Stern-Volmer constant): 9300 M⁻¹
CT-DNA [4]; CT-DNA, τo = 10^−8 s
  Kq (apparent bimolecular quenching constant): 9.3e+11 M⁻¹ s⁻¹
CT-DNA [4]; CT-DNA, Scatchard
  Kbin: 95800 M⁻¹
  binding constant (Kbin): 95800 M⁻¹
  n (number of binding sites): 1.21
CT-DNA [4]; CT-DNA, Stern-Volmer constant
  KSV: 9300 M⁻¹
CT-DNA [4]; CT-DNA, apparent bimolecular quenching constant
  Kq: 9.3e+11 M⁻¹ s⁻¹
CT-DNA [4]; compound 5 µM, CT-DNA 0–50 µM
  quenching of fluorescence intensity: 75%
[5]; BSA
  Stern-Volmer quenching constant (Ksv): 104000 M⁻¹
  apparent bimolecular quenching constant (Kq): 1.04e+13 M⁻¹ s⁻¹
[5]; BSA 10 µM, compound 0–16 µM
  quenching of BSA emission band at 350 nm: up to 70%
[5]; BSA, Scatchard
  Kbin: 47000 M⁻¹
  n (number of binding sites): 0.92
[5]; BSA, Scatchard, read-out: binding constant (Kbin) (converted)
  Kd: 21.3 µM
[5]; BSA, Stern-Volmer constant
  KSV: 104000 M⁻¹
[5]; BSA, apparent bimolecular quenching constant
  Kq: 1.04e+13 M⁻¹ s⁻¹

Source: article PMC7162861, “Synthesis, cytotoxicity, pharmacokinetic profile, binding with DNA and BSA of new imidazo[1,2-a]pyrazine-benzo[d]imidazol-5-yl hybrids” (Scientific Reports, 2020)
